In US20220073536A1 (Rigel Pharmaceuticals, Inc., priority 2003, published 2022):
Values belong to the compound of their own block, whether it stands above or below them.

Assays:
[1] = tested on: cultured human mast cells (CHMC); assay: CHMC low cell density ionomycin activation: tryptase assay; type: cell-based; details: read-out: LD Tryptase, CHMC, Iono, 3 pt
[2] = tested on: cultured human mast cells (CHMC); assay: CHMC low cell density IgE activation: tryptase assay; type: cell-based; details: IgE activation
Procedure, shortened: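 Tryptase release was read from supernatant with a fluorogenic substrate (30 min, room temperature) after anti-IgE challenge of cultured human mast cells (1000–1500 cells/well, low density) for 30 minutes at 37° C.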

[3] = Homo sapiens, Mast cell, low cell density CHMC, tryptase, 3 pt
[4] = Homo sapiens, Mast cell, low cell density CHMC, tryptase, 3 pt, read-out: LD Tryptase, CHMC, IgE, 3 pt
[5] = low cell density, 3 pt, read-out: LD Tryptase, CHMC, IgE, 3 pt
[6] = Homo sapiens, Mast cell, low cell density CHMC, tryptase release, 3 point
[7] = Homo sapiens, Mast cell, low cell density CHMC, tryptase release, 3 point, read-out: LD Tryptase, CHMC, IgE, 3 pt
[8] = Homo sapiens, Mast cell, low cell density CHMC, tryptase release, 3 pt
[9] = Homo sapiens, Mast cell, low cell density CHMC, tryptase release, 3 pt, read-out: LD Tryptase, CHMC, IgE, 3 pt
[10] = Homo sapiens, Mast cell, low cell density CHMC, tryptase release, 8 pt, read-out: LD Tryptase, CHMC, IgE, 8 pt
[11] = low cell density CHMC, tryptase release, 3 point
[12] = low cell density CHMC, tryptase release, 3 point, read-out: LD Tryptase, CHMC, IgE, 3 pt
[13] = low cell density CHMC, tryptase release, 8 point, read-out: LD Tryptase, CHMC, IgE, 8 pt
[14] = Homo sapiens, Mast cell, low cell density CHMC, tryptase, 8 pt, read-out: LD Tryptase, CHMC, IgE, 8 pt
[15] = Homo sapiens, Mast cell, low cell density, 3 pt
[16] = Homo sapiens, Mast cell, low cell density, 3 pt, read-out: LD Tryptase, CHMC, IgE, 3 pt
[17] = low cell density CHMC, tryptase release, 3 pt
[18] = low cell density CHMC, tryptase release, 3 pt, read-out: LD Tryptase, CHMC, IgE, 3 pt
[19] = low cell density CHMC, tryptase release, 8 pt, read-out: LD Tryptase, CHMC, IgE, 8 pt
[20] = Homo sapiens, Mast cell, low cell density CHMC, tryptase readout, 3 pt
[21] = Homo sapiens, Mast cell, low cell density CHMC, tryptase readout, 3 pt, read-out: LD Tryptase, CHMC, IgE, 3 pt

Compound: Cc1cc(C)cc(Nc2ncc(F)c(N(C)c3ccc4c(c3)N(C)C(=O)C(C)(C)O4)n2)c1 [Compound 391]
IC50 [1, 3]: < 10 µM
IC50 [2, 4]: < 10 µM

Compound: COc1cc(Nc2ncc(F)c(N(C)c3cc(OC)cc(OC)c3)n2)cc(OC)c1 [Compound 400]
IC50 [1, 3]: > 10 µM
IC50 [2, 4]: < 10 µM

Compound: 5-Fluoro-N4- (4-hydroxy-3,4-dihydro-2H-1-benzopyran-6-yl)-N2-[4- (oxazol-5-yl)phenyl]-2,4-pyrimidinediamine [Compound 1290]
IC50 ([1]; low cell density CHMC, tryptase, 3 pt): > 10 µM
IC50 ([2]; low cell density CHMC, tryptase, 3 pt, read-out: LD Tryptase, CHMC, IgE, 3 pt): < 10 µM
IC50 ([2]; low cell density CHMC, tryptase, 8 pt, read-out: LD Tryptase, CHMC, IgE, 8 pt): < 10 µM

Compound: CNS(=O)(=O)c1ccc(Nc2ncc(F)c(Nc3ccc(OC)c(OC)c3)n2)cc1OC [Compound 494, N4-(3,4-Dimethoxyphenyl)-5-fluoro-N2-[3-methoxyphenyl-4-(N-methylamino)sulfonyl]-2,4-pyrimidinediamine]
IC50 ([1]; low cell density, 3 pt): > 10 µM
IC50 [2, 5]: < 10 µM
IC50 ([2]; low cell density, 8 pt, read-out: LD Tryptase, CHMC, IgE, 8 pt): < 10 µM

Compound: COc1cc(Nc2ncc(F)c(N(C)c3cc(C)c(Cl)c(C)c3)n2)cc(OC)c1 [Compound 591]
IC50 [1, 6]: > 10 µM
IC50 [2, 7]: < 10 µM
IC50 ([2]; Homo sapiens, Mast cell, low cell density CHMC, tryptase release, 8 point, read-out: LD Tryptase, CHMC, IgE, 8 pt): < 10 µM

Compound: O=C1Nc2cc(Nc3nc(Nc4ccc(-c5cnco5)cc4)ncc3F)ccc2OC1CCO (stereo not shown) [Compound 227]
IC50 [1, 8]: > 10 µM
IC50 [2, 9]: < 10 µM
IC50 [2, 10]: < 10 µM

Compound: COc1cc(Nc2ncc(F)c(N(C)c3ccc(OC(C)C)nc3)n2)cc(OC)c1 [Compound 581, N2-(3,5-Dimethoxyphenyl)-5-fluoro-N4-(2-isopropoxypyrid-5-yl)-N4-methyl-2,4-pyrimidinediamine]
IC50 [1, 6]: > 10 µM
IC50 [2, 7]: < 10 µM

Compound: COC(=O)c1cc(Nc2ncc(F)c(Nc3ccc4c(c3)OCCO4)n2)cc(-c2ncco2)c1 [Compound 516, N4-(3,4-Ethylenedioxyphenyl)-5-fluoro-N2-[5-methoxycarbonyl-3-(oxazol-2-yl)phenyl]-2,4-pyrimidinediamine]
IC50 [1, 15]: > 10 µM
IC50 [2, 16]: > 10 µM

Compound: CC1(C)COc2ccc(Nc3nc(Nc4ccc(-c5cnco5)cc4)ncc3F)cc2N1 [Compound 223, N4-(3,4-Dihydro-3,3-dimethyl-2H,4H-benz[1,4]oxazin-6-yl)-5-fluoro-N2-[4-(oxazol-5-yl)phenyl]-2,4-pyrimidinediamine]
IC50 [1, 17]: > 10 µM
IC50 [2, 18]: < 10 µM
IC50 [2, 19]: < 10 µM

Compound: CNS(=O)(=O)c1ccc(Nc2ncc(F)c(Nc3cc(OC)cc(OC)c3)n2)cc1OC [Compound 495, N4-(3,5-Dimethoxyphenyl)-5-fluoro-N2-[3-methoxyphenyl-4-(methylamino)sulfonyl]-2,4-pyrimidinediamine]
IC50 ([1]; low cell density, 3 pt): > 10 µM
IC50 [2, 5]: < 10 µM

Compound: CN1CCOc2ccc(Nc3nc(Nc4cccc(-c5cnco5)c4)ncc3F)cc21 [Compound 236]
IC50 [1, 8]: > 10 µM
IC50 [2, 9]: < 10 µM

Compound: CC(=O)N1CCN(c2ccc(Nc3ncc(F)c(Nc4ccc5c(c4)OCCO5)n3)cc2)CC1 [Compound 427, N2-[4-(4-Acetylpiperazino)phenyl]-N4-(3,4-ethylenedioxyphenyl)-5-fluoro-2,4-pyrimidinediamine]
IC50 [1, 3]: > 10 µM
IC50 [2, 4]: < 10 µM
IC50 [2, 14]: < 10 µM

Compound: CC1(C)Oc2ccc(Nc3nc(Nc4cccc(-c5ncon5)c4)ncc3F)cc2NC1=O [Compound 514, N4-(2,2-Dimethyl-3-oxo-4H-benz[1,4]oxazin-6-yl)-5-fluoro-N2-[3-(1,2,4-oxadiazol-3-yl)phenyl]-2,4-pyrimidinediamine]
IC50 [1, 15]: > 10 µM
IC50 [2, 16]: < 10 µM

Compound: 2-Chloro-N4- (3,5-dichloro-4-methoxyphenyl-5-fluoro-N4-methyl-4-pyrimidineamine [Compound 491]
IC50 ([1]; low cell density, 3 pt): > 10 µM
IC50 [2, 5]: > 10 µM

More lines, now with the values ahead:

IC50 [1, 11]: < 10 µM
IC50 [2, 12]: < 10 µM
IC50 [2, 13]: < 10 µM
Compound: COC(=O)COc1ccc(Nc2nc(Nc3cc(C)cc(C)c3)ncc2F)cc1Cl [Compound 614, N4-[3-Chloro-4-(methoxycarbonyl)methyleneoxyphenyl]-N2-(3,5-dimethylphenyl)-5-fluoro-2,4-pyrimidinediamine]

IC50 [1, 3]: > 10 µM
IC50 [2, 4]: > 10 µM
Compound: Fc1cnc(Nc2cccc(NC3=NCCN3)c2)nc1NC1CCCCC1 [Compound 1177]

IC50 [1, 3]: < 10 µM
IC50 [2, 4]: < 10 µM
IC50 [2, 14]: < 10 µM
Compound: CCn1ncc2cc(Nc3ncc(F)c(Nc4ccc5c(c4)NC(=O)C(C)(C)O5)n3)ccc21 [Compound 696, N4-(2,2-Dimethyl-3-oxo-4H-benz[1,4]oxazin-6-yl)-N2-(1-ethylindazol-5-yl)-5-fluoro-2,4-pyrimidinediamine]

IC50 [1, 3]: > 10 µM
IC50 [2, 4]: < 10 µM
Compound: CN(c1nc(Nc2cccc(N3CCOCC3)c2)ncc1F)C1CCC1 [Compound 1149, N4-Cyclobutyl-5-fluoro-N4-methyl-N2-(3-morpholinophenyl)-2,4-pyrimidinediamine]

IC50 [1, 3]: > 10 µM
IC50 [2, 4]: < 10 µM
Compound: CC(=O)N(C)c1ccc(Nc2ncc(F)c(NC3CCCCC3)n2)cc1 [Compound 1176, N2-[4-(N-Acetyl-N-methylamino)phenyl]-N4-cyclohexyl-5-fluoro-2,4-pyrimidinediamine]

IC50 [1, 17]: > 10 µM
IC50 [2, 18]: < 10 µM
IC50 [2, 19]: < 10 µM
Compound: CC1(C)Oc2ccc(Nc3nc(Nc4ccc5c(cnn5CCCNS(C)(=O)=O)c4)ncc3F)nc2NC1=O [Compound 836, N4-(2,2-Dimethyl-3-oxo-4H-5-pyrid[1,4]oxazin-6-yl)-5-fluoro-N2-[1-[3-(N-methylsulfonylamino)propyl]indazol-5-yl]-2,4-pyrimidinediamine]

IC50 [1, 8]: > 10 µM
IC50 [2, 9]: < 10 µM
IC50 [2, 10]: < 10 µM
Compound: COCCn1ncc2ccc(Nc3ncc(F)c(Nc4ccc(OC)c(Cl)c4)n3)cc21 [Compound 776, N4-(3-Chloro-4-methoxyphenyl)-5-fluoro-N2-[1-(2-methoxyethyl)indazol-6-yl]-2,4-pyrimidinediamine]

IC50 [1, 8]: > 10 µM
IC50 [2, 9]: < 10 µM
IC50 [2, 10]: < 10 µM
Compound: COCCCn1ncc2cc(Nc3ncc(F)c(Nc4ccc5c(c4)NC(=O)C(C)(C)O5)n3)ccc21 [Compound 794, N4-(2,2-Dimethyl-3-oxo-4H-benz[1,4]oxazin-6-yl)-5-fluoro-N2-[1-(3-methoxypropyl)indazol-5-yl]-2,4-pyrimidinediamine]

IC50 [1, 3]: < 10 µM
IC50 [2, 4]: < 10 µM
IC50 [2, 14]: < 10 µM
Compound: COC(=O)CCNC(=O)c1ccc(Nc2ncc(F)c(Nc3ccc4c(c3)NC(=O)C(C)(C)O4)n2)cc1 [Compound 1302, N4-(2,2-Dimethyl-3-oxo-4H-benz[1,4]oxazin-6-yl)-5-fluoro-N2-[4-[N-(2-methoxycarbonylethyl)aminocarbonyl]phenyl]-2,4-pyrimidinediamine]

IC50 [1, 20]: > 10 µM
IC50 [2, 21]: < 10 µM
IC50 ([2]; Homo sapiens, Mast cell, low cell density CHMC, tryptase readout, 8 pt, read-out: LD Tryptase, CHMC, IgE, 8 pt): < 10 µM
Compound: CC1(C)Oc2ccc(Nc3nc(Nc4ccc(-c5cnco5)cc4)ncc3F)cc2NC1=O [Compound 1020, N4-(2,2-Dimethyl-3-oxo-4H-benz[1,4]oxazin-6-yl)-5-fluoro-N2-[4-(oxazol-5-yl)phenyl]-2,4-pyrimidinediamine]

IC50 [1, 3]: > 10 µM
IC50 [2, 4]: < 10 µM
Compound: CN1CCN(c2cccc(Nc3ncc(F)c(N[C@H]4CCN(Cc5ccccc5)C4)n3)c2)CC1 [Compound 1186]

IC50 [1, 20]: > 10 µM
IC50 [2, 21]: > 10 µM
Compound: CC(=O)N1CCN(c2cccc(Nc3ncc(F)c(Nc4cccc(NC5=NCCN5)c4)n3)c2)CC1 [Compound 1106]

IC50 [1, 11]: > 10 µM
IC50 [2, 12]: < 10 µM
IC50 [2, 13]: < 10 µM
Compound: CNC(=O)Cn1ccc2ccc(Nc3ncc(F)c(Nc4ccc(OC(F)(F)F)c(Cl)c4)n3)cc21 [Compound 662, N4-(3-Chloro-4-trifluoromethoxyphenyl)-5-fluoro-N2-[1-(N-methylamino)carbonylmethyleneindol-6-yl]-2,4-pyrimidinediamine]

IC50 [1, 11]: > 10 µM
IC50 [2, 12]: < 10 µM
Compound: CNC(=O)COc1ccc(Nc2nc(Nc3ccc(Cl)c(C(=O)NC)c3)ncc2F)cc1Cl [Compound 608, N4-[3-Chloro-4-(N-methylamino)carbonylmethyleneoxyphenyl]-N2-[4-chloro-3-(N-methylamino)carbonylphenyl]-5-fluoro-2,4-pyrimidinediamine]
